According to US20230312587A1, “PTERIDINONE COMPOUNDS AND USES THEREOF” (Vertex Pharmaceutical Incorporated, priority 2018, published 2023):
Read-outs that look alike come from different tables or passages of the source.

Columns and labels:
Plk1 = Plk1 (Homo sapiens (Human), UniProt P53350); assay: PLK1 inhibition assay (radioactive-phosphate incorporation); type: biochemical; settings: Ki(app), read-out: PLK1 - 33P.ENZ - CB 10 Ki
Outline: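 Radioactive-phosphate incorporation with 15 nM Plk1 and 9 µM Sam68 substrate, 20 µM [γ-33P]ATP, in 25 mM HEPES pH 7.5, 10 mM MgCl2, 25 mM NaCl, 2 mM DTT, 1.5% DMSO, room temperature, 45 min. Stopped with TCA/cold ATP, filtered, scintillation counted. Ki(app) from non-linear regression of background-corrected initial rates.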

[1] = system: non-small cell lung cancer (NSCLC) adenocarcinoma line D33966; assay: In vivo efficacy, NSCLC patient derived xenograft OD33966; set-up: species or system nu/nu mice; settings: NSCLC PDX OD33966, oral
Protocol: Female immune deficient mice (Charles River, 4-6 wks age) were anesthetized with Ketamine-Xylazine (140 mg/kg-14 mg/kg ip) and shaved. Puralube eye ointment was applied to the eyes to prevent desiccation of the corneas. Betadine and 70% ethanol was applied to the shaved location to sterilize the skin at the location of the incision. The animals were placed in a biosafety cabinet for the duration of the surgery. Using scissors, an 8 to 10 mm incision was made in the lateral flank of the skin. A tumor fragment weighing between 50 and 150 mg was placed under the skin at the incision site using forceps, and staples were used to close the incision. The staples were removed 5 to 7 days after surgery. Starting approximately two weeks after implantation, animals were weighed, and tumors were measured using caliper twice weekly. Tumor volume was calculated using the formula: volume=length×width^2×0.52.
Compound administration began when xenografts reached approximately 100-300 mm3 and continued until control xenografts reached […] of the animal's body weight. Test compounds were administered orally by gastric gavage. Percent tumor growth inhibition (TG) was calculated on the indicated treatment day. Percent TGI is defined as: [1−(del T/del C)]×100%, where del T is the final minus initial average volumes of the treated group, and del C is the final minus initial average volumes of the control group. […] The tested compounds were administered orally. Vehicle control consisted of either 0.5% methylcellulose/0.1% sodium lauryl sulfate or 20% captisol. Tumor volumes were determined by caliper measurement twice a week.

[2] = system: HepG2 cells, non-targeting control shRNA; assay: Cell viability, HepG2 control shRNA; type: cell-based
Protocol: (§1) Colo-205 (ATCC, catalog #CCL-222), HepG2 (ATCC, catalog #HB-8065), CFPAC1 (ATCC, catalog #CRL-1918), or DU4475 (ATCC, catalog #HTB-123) cells are plated in 10 mL of complete DMEM cell culture media [DMEM (Life Technologies, product #11960-051) media supplemented with 10% FBS (Hyclone, catalog #SH30071.03), antimycotic/antibiotic (Life Technologies, product #15240-062), and Glutamax (Life Technologies, product #35050-061)] at 3×10^6 cells per 10 cm cell culture plate (Corning, product #430167). Cells are allowed to attach and grow overnight at 37° C. in humidified 5% CO2. Cells are transduced by addition of 1×10^6 infectious units of lentivirus encoding WFS1 shRNA (Santa Cruz Biotech, catalog #sc-61804-V) or a non-targeting control shRNA (Santa Cruz Biotech, catalog #sc-108080) and 10 ug/ml of Polybrene® (Santa Cruz Biotech, catalog #sc-134220) to the cell culture media. After 48 hours transduced cells are selected by the addition of 1 microgram/mL of puromycin (Life Technologies, catalog #A1113803) to the cell culture media.

Colo-205 WFS1 shRNA = assay: TCF reporter activity, Colo-205 WFS1 shRNA; type: cell-based
Protocol: as §1

DU4475 Control shRNA = assay: TCF reporter activity, DU4475 Control shRNA; type: cell-based
Protocol: as §1

[3] = system: Colo-205 cells, shRNA targeting WFS1; assay: Cell viability, Colo-205 WFS1 shRNA; type: cell-based
Protocol: as §1

[4] = system: DU4475 cells, non-targeting control shRNA; assay: Cell viability, DU4475 control shRNA; type: cell-based
Protocol: as §1

Colo-205 Control shRNA = assay: TCF reporter activity, Colo-205 Control shRNA; type: cell-based
Protocol: as §1

[5] = system: DU4475 cells, shRNA targeting WFS1; assay: Cell viability, DU4475 WFS1 shRNA; type: cell-based
Protocol: as §1

DU4475 WFS1 shRNA = assay: TCF reporter activity, DU4475 WFS1 shRNA; type: cell-based
Protocol: as §1

[6] = system: HepG2 cells, shRNA targeting WFS1; assay: Cell viability, HepG2 WFS1 shRNA; type: cell-based
Protocol: as §1

[7] = system: Colo-205 cells, non-targeting control shRNA; assay: Cell viability, Colo-205 control shRNA; type: cell-based
Protocol: as §1

[8] = Mus musculus, 336 h, 100 mpk qd, treatment day 14, read-out: % TGI
[9] = Mus musculus, 288 h, 100 mpk qd, treatment day 12, read-out: % TGI

Chain of Plk1 (P53350 whole entry, species assumed): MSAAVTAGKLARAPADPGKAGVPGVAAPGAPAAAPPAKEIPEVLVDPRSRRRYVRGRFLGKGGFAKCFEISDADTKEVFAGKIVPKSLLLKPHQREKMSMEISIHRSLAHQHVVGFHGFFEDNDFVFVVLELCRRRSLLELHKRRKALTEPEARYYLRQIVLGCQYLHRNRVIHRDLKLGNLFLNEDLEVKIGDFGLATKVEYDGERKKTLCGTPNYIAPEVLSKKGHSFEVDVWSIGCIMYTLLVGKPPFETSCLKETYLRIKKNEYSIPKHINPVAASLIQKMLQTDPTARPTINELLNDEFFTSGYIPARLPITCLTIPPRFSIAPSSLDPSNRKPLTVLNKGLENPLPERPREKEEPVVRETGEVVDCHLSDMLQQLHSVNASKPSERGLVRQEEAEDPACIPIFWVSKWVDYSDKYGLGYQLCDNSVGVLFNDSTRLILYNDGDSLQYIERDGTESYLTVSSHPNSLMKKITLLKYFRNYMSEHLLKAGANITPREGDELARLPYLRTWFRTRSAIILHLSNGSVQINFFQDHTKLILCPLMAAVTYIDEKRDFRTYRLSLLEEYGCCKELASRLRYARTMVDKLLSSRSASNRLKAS

Cc1nc(N[C@@H]2CC[C@@H](n3ccc(C(F)(F)F)n3)C2)nc2c1NC(=O)[C@H](C)N2C (single isomer, unassigned) [Compound 311]
Ki (Plk1): > 4 µM

Cc1nc(NCc2cnn(Cc3ccc(F)cc3)c2)nc2c1N(C)C(=O)[C@H](C)N2C [Compound 1, (7S)-2-(((1-(4-fluorobenzyl)-1H-pyrazol-4-yl)methyl)amino)-4,5,7,8-tetramethyl-7,8-dihydropteridin-6(5H)-one]
Ki (Plk1): > 4 µM
inhibition in vivo at 200 mg/kg ([1]; Mus musculus, 456 h, 200 mpk bid, treatment day 19, read-out: % TGI): 94.5%

Cc1nc(NCc2cnn(Cc3ccc(F)cc3)c2)nc2c1NC(=O)[C@H](C)N2C [Compound 4, (7S)-2-(((1-(4-fluorobenzyl)-1H-pyrazol-4-yl)methyl)amino)-4,7,8-trimethyl-7,8-dihydropteridin-6(5H)-one]
Ki (Plk1): > 4 µM

Cc1nc(NCc2cnn(CCc3ccc(F)cc3)c2)nc2c1NC(=O)[C@H](C)N2C [Compound 6, (7S)-2-(((1-(4-fluorophenethyl)-1H-pyrazol-4-yl)methyl)amino)-4,7,8-trimethyl-7,8-dihydropteridin-6(5H)-one]
Ki (Plk1): > 4 µM

Cc1nc(NCc2cnn(CC3CCC3)c2)nc2c1N(C)C(=O)[C@H](C)N2C [Compound 7, (7S)-2-(((1-(cyclobutylmethyl)-1H-pyrazol-4-yl)methyl)amino)-4,5,7,8-tetramethyl-7,8-dihydropteridin-6(5H)-one]
Ki (Plk1): > 4 µM

Cc1nc(NCc2cnn(CCc3ccc(F)cc3)c2)nc2c1N(C)C(=O)[C@H](C)N2C [Compound 8, (7S)-2-(((1-(4-fluorophenethyl)-1H-pyrazol-4-yl)methyl)amino)-4,5,7,8-tetramethyl-7,8-dihydropteridin-6(5H)-one]
Ki (Plk1): > 4 µM

CC[C@H]1C(=O)Nc2cnc(NCc3cnn(Cc4ccc(F)cc4)c3)nc2N1C [Compound 9, (7S)-7-ethyl-2-(((1-(4-fluorobenzyl)-1H-pyrazol-4-yl)methyl)amino)-8-methyl-7,8-dihydropteridin-6(5H)-one]
Ki (Plk1): > 4 µM

COc1c(F)cc(Cn2cc(CNc3nc(C)c4c(n3)N(C)[C@@H](C)C(=O)N4)cn2)cc1F [Compound 46, (7S)-2-(((1-(3,5-difluoro-4-methoxybenzyl)-1H-pyrazol-4-yl)methyl)amino)-4,7,8-trimethyl-7,8-dihydropteridin-6(5H)-one]
Ki (Plk1): > 4 µM
inhibition in vivo at 100 mg/kg [1, 8]: 93.3%

Cc1nc(NCc2cnn(Cc3ccc(F)nc3)c2)nc2c1NC(=O)[C@H](C)N2C [Compound 77]
inhibition in vivo at 100 mg/kg [1, 8]: 98.5%

COc1cc(F)ccc1Cn1cc(CNc2nc(C)c3c(n2)N(C)[C@@H](C)C(=O)N3)cn1 [Compound 83, (7S)-2-(((1-(4-fluoro-2-methoxybenzyl)-1H-pyrazol-4-yl)methyl)amino)-4,7,8-trimethyl-7,8-dihydropteridin-6(5H)-one]
inhibition in vivo at 100 mg/kg [1, 8]: 97.2%

Cc1cc(F)ncc1Cn1cc(CNc2nc(C)c3c(n2)N(C)[C@@H](C)C(=O)N3)cn1 [Compound 94, (7S)-2-(((1-((6-fluoro-4-methylpyridin-3-yl)methyl)-1H-pyrazol-4-yl)methyl)amino)-4,7,8-trimethyl-7,8-dihydropteridin-6(5H)-one]
inhibition in vivo at 100 mg/kg [1, 8]: 94.5%

Cc1nc(NCc2cnn(Cc3ccc(C(F)(F)F)nc3)c2)nc2c1NC(=O)[C@H](C)N2C [Compound 136, (7S)-4,7,8-trimethyl-2-(((1-((6-(trifluoromethyl)pyridin-3-yl)methyl)-111-pyrazol-4-yl)methyl)amino)-7,8-dihydropteridin-6(5H)-one]
IC50 [2]: 0.26 µM
Ki (Plk1): > 4 µM
IC50 (Colo-205 WFS1 shRNA): 0.7 µM
IC50 (DU4475 Control shRNA): 0.09 µM
IC50 ([3]; Colo-205 WFS1 shRNA): > 9 µM
increase in the IC50 in reducing cell viability on WFS1 knockdown ([3]; DU4475, Colo-205 and HepG2 cells, WFS1 shRNA vs control cells): greater than 50 fold
IC50 [4]: 0.08 µM
IC50 (Colo-205 Control shRNA): 0.1 µM
IC50 [5]: 6.1 µM
IC50 (DU4475 WFS1 shRNA): 0.7 µM
% TGI ([1]; 100 mpk qd, treatment day 14): 106.65%
IC50 [6]: 2.2 µM
IC50 [7]: 0.05 µM

Cc1nc(NCc2cnn(Cc3cc(C(F)(F)F)nn3C)c2)nc2c1NC(=O)[C@H](C)N2C [Compound 160, (7S)-4,7,8-trimethyl-2-(((1-((1-methyl-3-(trifluoromethyl)-1H-pyrazol-5-yl)methyl)-1H-pyrazol-4-yl)methyl)amino)-7,8-dihydropteridin-6(5H)-one]
Ki (Plk1): > 4 µM

Cc1nc(N[C@H]2C[C@H](Oc3cc(F)c(F)c(F)c3)C2)nc2c1NC(=O)[C@H](C)N2C [Compound 246, (7S)-4,7,8-trimethyl-2-((trans-3-(3,4,5-trifluorophenoxy)cyclobutyl)amino)-7,8-dihydropteridin-6(5H)-one]
Ki (Plk1): > 4 µM
inhibition in vivo at 100 mg/kg ([1]; Mus musculus, 264 h, 100 mpk qd, treatment day 11, read-out: % TGI): 82.6%

Cc1nc(N[C@H]2C[C@@H](Oc3cc(F)c(F)c(F)c3)C2)nc2c1NC(=O)[C@H](C)N2C [Compound 247, (7S)-4,7,8-trimethyl-2-((cis-3-(3,4,5-trifluorophenoxy)cyclobutyl)amino)-7,8-dihydropteridin-6(5H)-one]
Ki (Plk1): > 4 µM

Cc1nc(N[C@@H]2CC[C@@H](Oc3cc(F)c(F)c(F)c3)C2)nc2c1N(C)C(=O)[C@H](C)N2C [Compound 272, (S)-4,5,7,8-tetramethyl-2-(((1R,3R)-3-(3,4,5-trifluorophenoxy)cyclopentyl)amino)-7,8-dihydropteridin-6(5H)-one]
inhibition in vivo at 100 mg/kg [1, 8]: 77.9%

Cc1nc(N[C@H]2C[C@H](Oc3ccnc(C(F)(F)F)c3)C2)nc2c1NC(=O)[C@H](C)N2C [Compound 335, (7S)-4,7,8-trimethyl-2-((trans-3-((2-(trifluoromethyl)pyridin-4-yl)oxy)cyclobutyl)amino)-7,8-dihydropteridin-6(5H)-one]
Ki (Plk1): > 4 µM

Cc1nc(N(C)Cc2cnn(Cc3ccc(C(F)(F)F)nc3)c2)nc2c1NC(=O)[C@H](C)N2C [Compound 403, (7S)-4,7,8-trimethyl-2-(methyl((1-((6-(trifluoromethyl)pyridin-3-yl)methyl)-1H-pyrazol-4-yl)methyl)amino)-7,8-dihydropteridin-6(5H)-one]
inhibition in vivo at 100 mg/kg [1, 9]: 103%

CC(=O)N(Cc1cnn(Cc2ccc(C(F)(F)F)nc2)c1)c1nc(C)c2c(n1)N(C)[C@@H](C)C(=O)N2 [Compound 405, (7S)-N-((1-((6-(trifluoromethyl)pyridin-3-yl)methyl)-1H-pyrazol-4-yl)methyl)-N-(4,7,8-trimethyl-6-oxo-5,6,7,8-tetrahydropteridin-2-yl)acetamide]
inhibition in vivo at 100 mg/kg [1, 9]: 91%
